Test results as given in patent US11590129B2, “Combination therapy with an antitumor alkaloid” (PHARMA MAR, S.A., priority 2010, dated 2023).
Each block holds one molecule with its values, some of them ahead of it.

Tests used:
[1] = tested on: A673 human rhabdomyosarcoma cell line; assay: cells; conditions: Homo sapiens, A673, 72 h
Experimental: (§1) a. […] Briefly, cells were harvested and seeded in 96 well microtiter plates at a density of 5,000 cells in 150 μL of culture medium and incubated for 24 hours in drug-free medium before treatment with vehicle alone or test compounds for 72 h.
(§2) The cytotoxic effect was measured by the MTT reduction assay, in which 3-(4,5-Dimethylthiazol-2-yl)-2,5-diphenyltetrazolium bromide, a tetrazole, which is reduced to purple formazan in the mitochondria of living cells, was used. MTT (50 μL of 1 mg/mL stock solution) was added to the wells and incubated for 8 hours at 37° C. until formazan crystals were formed. After gently removing the culture medium, DMSO was added to dissolve the insoluble purple formazan product into a colored solution. […] Results were expressed as percentage of control cell growth.
(§3) b. In a second set of assays, A549 human tumor cells were incubated with PM01183 in combination with each of the agents mentioned above.
(§4) As a visual aid, response values were plotted on a scatter plot with dose ratios given on the x-axis and % response values on the y-axis. […] In cases where response values at the two endpoints were approximately equivalent, points lying above or below this predicted line of additivity could be interpreted as representing antagonistic or synergistic drug interaction, respectively.
(§5) Additional serial dilutions were prepared in serum-free culture medium to achieve a final 4× concentration. Aliquots of 50 μL of each diluted compound were added per well.
A673 was the human rhabdomyosarcoma cell line selected for this assay.

[2] = tested on: PC-3 human prostate cancer cell line; assay: cells; conditions: Homo sapiens, PC-3, 72 h
Experimental: as §1, §2, §3, §4, §5
PC-3 was the human prostate adenocarcinome cell line selected for this assay.

[3] = tested on: HGC-27 human gastric carcinoma cell line; assay: cells; conditions: Homo sapiens, HGC-27, 72 h
Experimental: as §1, §2, §3, §4, §5
HGC-27 was the human gastric carcinoma cell line selected for this assay.

[4] = tested on: IGROV-1 human ovarian adenocarcinoma cell line; assay: cells; conditions: Homo sapiens, IGROV-1, 72 h
Experimental: as §1, §2, §3, §4, §5
IGROV-1 was the human ovarian adenocarcinoma cell line selected for this assay.

[5] = tested on: HepG2 human hepatocellular liver carcinoma cell line; assay: MTT cytotoxicity assay in HepG2 cells: IC50 of single agents and combinations with PM01183; assay type: cell-based; conditions: Homo sapiens; HepG2, 72 hours drug exposure, MTT; read-out: IC50
Experimental: as §1, §2, §3, §4, §5
HepG2 was the human hepatocellular liver carcinoma cell line selected for this assay.

[6] = tested on: MDA-MB-231 human breast adenocarcinoma cell line; assay: cells; conditions: Homo sapiens, MDA-MB-231, 72 h
Experimental: as §1, §2, §3, §4, §5

[7] = tested on: RXF-393 human kidney carcinoma cell line; assay: cells; conditions: Homo sapiens, RXF 393, 72 h
Experimental: as §1, §2, §3, §4, §5

[8] = tested on: HT-29 human colon adenocarcinoma cell line; assay: cells; conditions: Homo sapiens, HT-29, 72 h
Experimental: as §1, §2, §3, §4, §5
HT-29 was the human colon adenocarcinoma cell line selected for this assay.

A2780 tumors = assay: Human ovarian tumor xenografts (A2780) in athymic nude mice, tumor volume % T/C; assay type: in vivo
Experimental: (§6) Female athymic nude mice (Harlan Laboratories Models, S.L. (Barcelona, Spain) were utilized for all experiments. Animals were housed in individually ventilated cages, up to ten per cage in a 12-hour light-dark cycle at 21-23° C. and 40-60% humidity. The mice were allowed free access to irradiated standard rodent diet and sterilized water. Animals were acclimated for at least 5 days prior to tumor implantation with a tumor cell suspension.
The formula to calculate volume for a prolate ellipsoid was used to estimate tumor volume (mm^3) from 2-dimensional tumor measurements: Tumor volume (mm^3)=[L×W^2]÷2, where L is the length and it is the longest diameter in mm, and W is the width and it is the shortest diameter in mm of a tumor. Assuming unit density, volume was converted to weight (i.e., 1 mm^3=1 mg). Tumor volume and animal body weights were measured 2-3 times per week starting form the first day of treatment (Day 0).
PM01183 was provided in the form of vials of lyophilized PM01183 cake which was reconstituted with water for infusion to a concentration of 0.2 mg/mL. The PM01183 stock solution was further diluted in 5% glucose solution for injection to the dosing formulation concentrations. […] Vinorelbine was provided as a solution prepared by diluting the product with 0.9% saline solution.
Dose level groups were administered either as single agents or in combination.
(§7) Comparison of the median tumor volume in the treatment groups (T) to the median tumor volume in the control group (T/C×100%) was used for evaluation of the antitumor efficacy.
Day 9 for PM01183 and vinorelbine study) using the median-effect principle (Chou T. C. Pharmacol. Rev.

U87-MG tumors = assay: Human brain tumor xenografts (U87-MG) in athymic nude mice, tumor volume % T/C; assay type: in vivo
Experimental: as §6
The tumor model used in these studies was U87-MG cell line, which was obtained from the American Type Culture Collection (ATCC HTB-14™).
U87-MG cells were grown at 37° C. with 5% CO2 in Minimum Essential Medium Eagle (MEME). Each animal was subcutaneously implanted on the right flank, using 26G needle and a 1 cc syringe, with 5×10^6 U87-MG cells, from in vitro passage 5, in 0.05 mL suspension of 50% Matrigel and 50% serum free medium, without antibiotics.
PM01183 was provided in the form of vials of lyophilized PM01183 cake which was reconstituted with water for infusion to a concentration of 0.2 mg/mL. The PM01183 stock solution was further diluted in 5% glucose solution for injection to the dosing formulation concentrations. Temozolomide was provided as a solution prepared by diluting the product in DMSO 10% in 0.9% saline solution for injection to the target final concentration.
In these experiments, PM01183 and temozolomide treatments, as well as placebo, were administered as follows: PM01183, intravenously once per week up to 3 consecutive weeks, on Days 0, 7 and 14, temozolomide orally, in a daily basis during 8 consecutive days (Days 0 to 7), and placebo was administered following the same schedule as those provided for PM01183 and temozolomide. Dose level groups were administered either as single agents or in combination.
as §7

[9] = vinorelbine 4.0 mg/kg iv days 0,7
[10] = vinorelbine 8.0 mg/kg iv days 0,7
[11] = temozolomide 1.5 mg/kg orally daily days 0 to 7
[12] = temozolomide 3 mg/kg orally daily days 0 to 7

SMILES: CCC1=C[C@@H]2CN(C1)Cc1c([nH]c3ccccc13)[C@@](C(=O)OC)(c1cc3c(cc1OC)N(C)[C@H]1[C@@](O)(C(=O)OC)[C@H](OC(C)=O)[C@]4(CC)C=CCN5CC[C@]31[C@@H]54)C2 [Vinorelbine, vinorelbine]
IC50 [1]: 50 nM | IC50 [2]: 10000 nM | IC50 [3]: 65 nM | IC50 [4]: 1390 nM | IC50 [5]: 1020 nM | IC50 [6]: 12000 nM | IC50 [7]: 8500 nM | IC50 [8]: 30 nM | % T/C on day 0 (A2780 tumors; [9]): 97.2% | % T/C on day 2 (A2780 tumors; [9]): 88.6% | % T/C on day 5 (A2780 tumors; [9]): 69.3% | % T/C on day 7 (A2780 tumors; [9]): 81.7% | % T/C on day 9 (A2780 tumors; [9]): 77.3% | % T/C on day 0 (A2780 tumors; [10]): 97.6% | % T/C on day 2 (A2780 tumors; [10]): 79.5% | % T/C on day 5 (A2780 tumors; [10]): 45.0% | % T/C on day 7 (A2780 tumors; [10]): 54.2% | % T/C on day 9 (A2780 tumors; [10]): 47.9%

IC50 [1]: 2160 nM | IC50 [4]: 2880 nM
SMILES: O=C(CCCCCCC(=O)Nc1ccccc1)NO [Vorinostat, vorinostat]

SMILES: Cn1nnc2c(C(N)=O)ncn2c1=O [temozolomide]
% T/C on day 0 (U87-MG tumors; Temozolomide 1.0 mg/kg): 98.2% | % T/C on day 2 (U87-MG tumors; Temozolomide 1.0 mg/kg): 100.2% | % T/C on day 4 (U87-MG tumors; Temozolomide 1.0 mg/kg): 65.1% | % T/C on day 7 (U87-MG tumors; Temozolomide 1.0 mg/kg): 81.2% | % T/C on day 9 (U87-MG tumors; Temozolomide 1.0 mg/kg): 55.0% | % T/C on day 11 (U87-MG tumors; Temozolomide 1.0 mg/kg, day 11): 63.5% | % T/C on day 14 (U87-MG tumors; Temozolomide 1.0 mg/kg, day 14): 73.1% | % T/C on day 16 (U87-MG tumors; Temozolomide 1.0 mg/kg, day 16): 75.0% | % T/C on day 0 (U87-MG tumors; Temozolomide 1.5 mg/kg): 94.1% | % T/C on day 2 (U87-MG tumors; Temozolomide 1.5 mg/kg): 96.9% | % T/C on day 4 (U87-MG tumors; Temozolomide 1.5 mg/kg): 75.6% | % T/C on day 7 (U87-MG tumors; Temozolomide 1.5 mg/kg): 73.0% | % T/C on day 9 (U87-MG tumors; Temozolomide 1.5 mg/kg): 56.5% | % T/C on day 11 (U87-MG tumors; Temozolomide 1.5 mg/kg, day 11): 59.3% | % T/C on day 14 (U87-MG tumors; Temozolomide 1.5 mg/kg, day 14): 50.0% | % T/C on day 16 (U87-MG tumors; Temozolomide 1.5 mg/kg, day 16): 53.5% | % T/C on day 0 (U87-MG tumors; Temozolomide 3.0 mg/kg): 97.1% | % T/C on day 2 (U87-MG tumors; Temozolomide 3.0 mg/kg): 95.5% | % T/C on day 4 (U87-MG tumors; Temozolomide 3.0 mg/kg): 67.3% | % T/C on day 7 (U87-MG tumors; Temozolomide 3.0 mg/kg): 39.4% | % T/C on day 9 (U87-MG tumors; Temozolomide 3.0 mg/kg): 25.3% | % T/C on day 11 (U87-MG tumors; Temozolomide 3.0 mg/kg, day 11): 22.9% | % T/C on day 14 (U87-MG tumors; Temozolomide 3.0 mg/kg, day 14): 28.4% | % T/C on day 16 (U87-MG tumors; Temozolomide 3.0 mg/kg, day 16): 31.5% | % T/C on day 11 (U87-MG tumors; [11]): 59.3% | % T/C on day 14 (U87-MG tumors; [11]): 50.0% | % T/C on day 16 (U87-MG tumors; [11]): 53.5% | % T/C on day 11 (U87-MG tumors; [12]): 22.9% | % T/C on day 14 (U87-MG tumors; [12]): 28.4% | % T/C on day 16 (U87-MG tumors; [12]): 31.5%
